The source made the active and inactive calls. The calls are words filed in the database; no cut-off is given here.
Experiments:
[1] = target: T1, Ubiquitin carboxyl-terminal hydrolase 8 (Homo sapiens) (UniProt P40818); assay: Inhibition of human USP8 using Ub-AMC as substrate at 1 to 30 uM after 60 mins by fluorometric analysis
T1 sequence (whole entry): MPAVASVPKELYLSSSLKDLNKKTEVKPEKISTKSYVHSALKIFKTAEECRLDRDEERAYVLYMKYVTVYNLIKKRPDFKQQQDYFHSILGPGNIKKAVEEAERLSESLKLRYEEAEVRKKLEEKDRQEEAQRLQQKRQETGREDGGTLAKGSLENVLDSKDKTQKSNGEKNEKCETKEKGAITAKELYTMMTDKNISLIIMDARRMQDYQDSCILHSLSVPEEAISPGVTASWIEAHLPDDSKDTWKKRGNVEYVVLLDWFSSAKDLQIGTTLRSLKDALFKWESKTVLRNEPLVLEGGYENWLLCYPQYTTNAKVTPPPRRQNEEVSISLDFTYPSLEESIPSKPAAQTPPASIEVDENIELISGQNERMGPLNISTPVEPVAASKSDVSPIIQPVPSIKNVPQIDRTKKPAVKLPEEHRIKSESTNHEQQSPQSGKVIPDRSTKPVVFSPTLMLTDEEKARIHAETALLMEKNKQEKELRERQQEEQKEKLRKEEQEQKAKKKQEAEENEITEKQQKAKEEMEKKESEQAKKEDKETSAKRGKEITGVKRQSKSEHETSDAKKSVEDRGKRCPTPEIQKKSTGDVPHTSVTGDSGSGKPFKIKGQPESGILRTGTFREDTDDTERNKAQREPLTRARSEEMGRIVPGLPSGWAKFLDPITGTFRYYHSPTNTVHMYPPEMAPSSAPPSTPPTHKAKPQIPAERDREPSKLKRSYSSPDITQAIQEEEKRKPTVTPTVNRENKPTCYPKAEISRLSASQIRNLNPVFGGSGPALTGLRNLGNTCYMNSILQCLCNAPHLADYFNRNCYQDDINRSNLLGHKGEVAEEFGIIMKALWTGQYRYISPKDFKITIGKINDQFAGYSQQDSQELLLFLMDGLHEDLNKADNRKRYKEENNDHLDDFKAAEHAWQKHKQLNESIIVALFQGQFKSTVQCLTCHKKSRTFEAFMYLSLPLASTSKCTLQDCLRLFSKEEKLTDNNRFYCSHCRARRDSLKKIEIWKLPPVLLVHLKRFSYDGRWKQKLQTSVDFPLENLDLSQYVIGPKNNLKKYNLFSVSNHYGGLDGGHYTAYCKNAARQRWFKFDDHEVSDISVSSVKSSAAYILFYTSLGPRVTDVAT

[2] = target: T2, Ubiquitin carboxyl-terminal hydrolase isozyme L3 (Homo sapiens) (UniProt P15374); assay: Inhibition of human UCH-L3 using Ub-AMC as substrate at 1 to 30 uM after 60 mins by fluorometric analysis
T2 sequence (whole entry): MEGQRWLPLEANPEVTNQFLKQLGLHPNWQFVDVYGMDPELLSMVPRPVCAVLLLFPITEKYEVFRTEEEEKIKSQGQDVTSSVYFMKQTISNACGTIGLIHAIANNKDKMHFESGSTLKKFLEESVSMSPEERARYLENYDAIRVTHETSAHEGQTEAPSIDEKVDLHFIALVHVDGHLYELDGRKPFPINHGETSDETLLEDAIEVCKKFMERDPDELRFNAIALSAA

[3] = target: T3, Ubiquitin carboxyl-terminal hydrolase 5 (Homo sapiens) (UniProt P45974); assay: Inhibition of wild type human USP5 expressed in Escherichia coli BL21(DE3) using K48-linked tetraubiquitin as substrate assessed as substrate hydrolysis at 10 uM after 15 mins by SDS-PAGE analysis
T3 sequence (whole entry): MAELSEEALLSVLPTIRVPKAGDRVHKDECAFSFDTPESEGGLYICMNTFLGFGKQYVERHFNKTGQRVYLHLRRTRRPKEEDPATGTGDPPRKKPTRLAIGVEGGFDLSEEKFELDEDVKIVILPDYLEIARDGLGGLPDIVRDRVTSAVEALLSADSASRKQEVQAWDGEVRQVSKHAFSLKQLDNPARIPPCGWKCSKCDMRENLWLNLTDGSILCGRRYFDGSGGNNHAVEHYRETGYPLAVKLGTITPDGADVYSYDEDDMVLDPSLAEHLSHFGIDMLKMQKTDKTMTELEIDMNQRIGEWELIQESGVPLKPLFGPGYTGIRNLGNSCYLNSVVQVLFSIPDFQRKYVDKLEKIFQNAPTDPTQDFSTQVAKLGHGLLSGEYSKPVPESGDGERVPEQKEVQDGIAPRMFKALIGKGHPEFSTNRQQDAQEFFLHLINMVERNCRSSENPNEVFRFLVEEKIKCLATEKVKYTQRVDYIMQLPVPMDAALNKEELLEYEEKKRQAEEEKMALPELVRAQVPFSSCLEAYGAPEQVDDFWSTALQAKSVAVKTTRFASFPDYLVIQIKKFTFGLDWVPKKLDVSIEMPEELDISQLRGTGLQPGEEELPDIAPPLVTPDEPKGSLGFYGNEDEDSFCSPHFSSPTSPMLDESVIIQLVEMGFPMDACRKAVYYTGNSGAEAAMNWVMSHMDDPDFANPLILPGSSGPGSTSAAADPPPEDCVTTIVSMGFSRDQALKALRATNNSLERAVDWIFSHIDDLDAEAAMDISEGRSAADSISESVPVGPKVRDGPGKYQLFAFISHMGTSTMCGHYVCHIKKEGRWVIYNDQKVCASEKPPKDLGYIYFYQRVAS

## O=C(Cc1ccccc1)Oc1c(OC(=O)Cc2ccccc2)c(-c2ccc(O)cc2)c(O)c(O)c1-c1ccc(O)cc1 [VIALININ A]
[1]
  inhibition: inactive
[2]
  inhibition: inactive
[3]
  inhibition: Active

Source: ChEMBL document CHEMBL2406999, “Vialinin A is a ubiquitin-specific peptidase inhibitor” (Bioorg Med Chem Lett, 2013)
